In US12600709B2, “Nonpeptide somatostatin type 5 receptor agonists and uses thereof” (Crinetics Pharmaceuticals, Inc., priority 2019, dated 2026):

Molecular target: T1, human somatostatin receptor subtype 5 (Homo sapiens, UniProt P35346)
T1 construct: expressed in transfected cells
Assay: cAMP assay for SST5R (inhibition of cAMP in CHO-K1 cells)
Format: cell-based
Conditions: Table A; inhibition of cAMP via human SST5 receptor; read-out: SST5 potency
Description: General overview: All five SSTR subtypes are Gi coupled G-protein coupled receptors (GPCRs) that lead to decreases in intracellular cyclic AMP (cAMP) when activated by an agonist. Therefore, measurement of intracellular cAMP levels can be used to assess whether compounds of the invention are agonists of SSTR subtypes (John Kelly, Troy Stevens, W. Joseph Thompson, and Roland Seifert, Current Protocols in Pharmacology, 2005, 2.2.1-2.2). One example of an intracellular cAMP assay is described below.
cAMP Assay Protocol for SST5R:
Four days prior to the assay, 2,000 Chinese hamster ovary cells (CHO-K1, ATCC #CCL-61) stably expressing the human somatostatin receptor subtype 5 are plated in each well of a 96-well tissue culture-treated plate in Ham's F12 growth media (ThermoFisher #10-080-CM) supplemented with 10% donor bovine serum (Gemini Bio-Products #100-506), 100 U/mL penicillin; 100 µg/mL streptomycin; 2 mM L-glutamine (Gemini Bio-Products #400-110) and 0.25 mg/mL G418 Sulfate (GoldBio #108321-42-2). The cells are cultured at 37° C., 5% CO2 and 95% humidity. On the day of the assay, the media is aspirated and the cells are treated with 50 μL of 1.6 μM NKH477 (Sigma #N3290) plus various dilutions of compounds of the invention in assay buffer [1× Hank's Balanced Salt Solution (ThermoFisher #SH3058802), 0.5 mM HEPES pH 7.4, 0.1% bovine serum albumin, 0.2 mM 3-Isobutyl-1-methylxanthine (IBMX, VWR #200002-790)]. The cells are incubated for 20 minutes at 37° C. […] The cells are treated with 50 μL of lysis buffer (HRTF cAMP kit, Cisbio) for 30 minutes and then the lysate is diluted to 250 μL with assay buffer. The lysate is transferred to 384-well plates and cAMP detection and visualization antibodies are added and incubated for 1-24 hours at room temperature. The time-resolved fluorescent signal is read with a Tecan M1000Pro multiplate reader. The intracellular cAMP concentrations are calculated by regression to a standard curve and are plotted vs. the concentration of the compounds of the invention and the EC50 of the compounds are calculated using standard methods. All data manipulations are in GraphPad Prism v6 or v7.

T1 sequence (P35346 whole entry): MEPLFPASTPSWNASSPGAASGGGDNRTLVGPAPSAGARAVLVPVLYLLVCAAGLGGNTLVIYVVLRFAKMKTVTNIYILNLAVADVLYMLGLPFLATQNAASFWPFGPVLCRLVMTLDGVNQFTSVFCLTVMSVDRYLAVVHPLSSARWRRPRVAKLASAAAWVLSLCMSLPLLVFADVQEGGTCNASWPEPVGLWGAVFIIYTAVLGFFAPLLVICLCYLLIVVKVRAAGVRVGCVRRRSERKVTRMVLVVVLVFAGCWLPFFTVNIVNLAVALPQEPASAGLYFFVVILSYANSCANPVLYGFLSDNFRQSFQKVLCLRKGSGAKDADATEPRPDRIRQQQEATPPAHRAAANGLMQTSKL

| EC50 | Structure (SMILES) |
| --- | --- |
| < 10 nM | C[C@]1(N)CCN(c2c(C(=O)N[C@@H]3CCCC[C@H]3F)cncc2-c2cc(F)cc(F)c2)C1 (mixture of isomers) [1-52, 4-[(3S)-3-amino-3-methylpyrrolidin-1-yl]-5-(3,5-difluorophenyl)-N-[trans-2-fluorocyclohexyl]pyridine-3-carboxamide] |
| < 10 nM | C[C@]1(N)CCN(c2c(C(=O)N[C@@H]3CCCC[C@@H]3F)cncc2-c2cc(F)cc(F)c2)C1 (mixture of isomers) [1-83, 4-[(3S)-3-amino-3-methylpyrrolidin-1-yl]-5-(3,5-difluorophenyl)-N-[cis-2-fluorocyclohexyl]pyridine-3-carboxamide] |
| > 1000 nM | N#Cc1ncc(C(=O)NC23CC(C2)C3)c(N2CC[C@](N)(CO)C2)c1-c1cc(F)cc(F)c1 (single isomer, unassigned) [1-99] |
| 10 to 100 nM | N#Cc1ncc(C(=O)NC23CC(C2)C3)c(N2C[C@H](N)[C@@H](F)C2)c1-c1cc(F)cc(F)c1 (single isomer, unassigned) [1-102] |
| 100 to 1000 nM | C[C@H](NC(=O)c1cnc(C#N)c(-c2cc(F)cc(F)c2)c1N1CC[C@@](N)(CC(F)F)C1)C1CC1 (single isomer, unassigned) [1-119] |
| 10 to 100 nM | C[C@H](NC(=O)c1cnc(C#N)c(-c2cc(F)cc(F)c2)c1N1C[C@H](N)[C@@H](F)C1)C1CC1 (single isomer, unassigned) [1-136] |
| < 10 nM | C[C@H](NC(=O)c1cnc(C#N)c(-c2cc(F)cc(Cl)c2)c1N1C[C@H](N)[C@@H](F)C1)C1CC1 (single isomer, unassigned) [1-139] |
| < 10 nM | C[C@H](NC(=O)c1cnc(C#N)c(-c2cc(F)cc(F)c2)c1N1CC[C@@](N)(CF)C1)C1CC1 (single isomer, unassigned) [1-220] |
| 10 to 100 nM | C[C@H](NC(=O)c1cnc(C#N)c(-c2cc(F)cc(F)c2)c1N1CC[C@](N)(CF)C1)C1CC1 (single isomer, unassigned) [1-221] |
| 10 to 100 nM | C[C@]1(N)CCN(c2c(C(=O)NC3CC3)cncc2-c2cc(F)cc(F)c2)C1 [1-23, 4-[(3S)-3-amino-3-methylpyrrolidin-1-yl]-N-cyclopropyl-5-(3,5-difluorophenyl)pyridine-3-carboxamide] |

Second part, the compound before the results:

| Structure (SMILES) | EC50 |
| --- | --- |
| COc1ncc(C(=O)N[C@@H](C)C(F)(F)F)c(N2CC[C@](C)(N)C2)c1Br (single isomer, unassigned) [1-274] | > 1000 nM |
| N#Cc1cccc(-c2cncc(C(=O)NC3CCCCC3)c2N2CC[C@H](N)C2)c1 [1-7, 4-[(3S)-3-aminopyrrolidin-1-yl]-5-(3-cyanophenyl)-N-cyclohexylpyridine-3-carboxamide] | 100 to 1000 nM |
| CC1(NC(=O)c2cncc(-c3cccc(C#N)c3)c2N2CC[C@H](N)C2)CCC1 [1-8, 4-[(3S)-3-aminopyrrolidin-1-yl]-5-(3-cyanophenyl)-N-(1-methylcyclobutyl)pyridine-3-carboxamide] | 100 to 1000 nM |
| N#Cc1cccc(-c2cncc(C(=O)NCc3ccccc3)c2N2CC[C@H](N)C2)c1 [1-9, 4-[(3S)-3-aminopyrrolidin-1-yl]-N-benzyl-5-(3-cyanophenyl)pyridine-3-carboxamide] | 100 to 1000 nM |
| Cc1cc(C)cc(-c2cncc(C(=O)NC3CCCC(F)(F)C3)c2N2CC[C@](C)(N)C2)c1 (stereo partly drawn) [1-14, 4-[(3S)-3-amino-3-methylpyrrolidin-1-yl]-N-(3,3-difluorocyclohexyl)-5-(3,5-dimethylphenyl)pyridine-3-carboxamide] | < 10 nM |
| Cc1cc(F)cc(-c2cncc(C(=O)NC3(C(F)(F)F)CCCC3)c2N2CC[C@](C)(N)C2)c1 [1-15, 4-[(3S)-3-amino-3-methylpyrrolidin-1-yl]-5-(3-fluoro-5-methylphenyl)-N-[1-(trifluoromethyl)cyclopentyl]pyridine-3-carboxamide] | < 10 nM |
| Cc1cc(F)cc(-c2cncc(C(=O)NC3C4CC5CC(C4)CC3C5)c2N2CC[C@](C)(N)C2)c1 (stereo partly drawn) [1-18, N-(adamantan-2-yl)-4-[(3S)-3-amino-3-methylpyrrolidin-1-yl]-5-(3-fluoro-5-methylphenyl)pyridine-3-carboxamide] | 10 to 100 nM |
